According to ChEMBL document CHEMBL5678818, “Discovery of potent SOS1 inhibitors that block RAS activation via disruption of the RAS-SOS1 interaction” (Proc Natl Acad Sci U S A, 2019):

Assays:
[1] = target: Transient receptor potential cation channel subfamily M member 6 (Homo sapiens) (UniProt Q9BX84); assay: Inhibition of TRPM6 (unknown origin) assessed as residual activity at 1000 nM by KINOMEscan analysis relative to control
[2] = target: Glycogen synthase kinase-3 beta (Homo sapiens) (UniProt P49841); assay: Inhibition of GSK3B (unknown origin) assessed as residual activity at 1000 nM by KINOMEscan analysis relative to control
[3] = target: T1, Serine/threonine-protein kinase Nek5 (Homo sapiens) (UniProt Q6P3R8); assay: Inhibition of NEK5 (unknown origin) assessed as residual activity at 1000 nM by KINOMEscan analysis relative to control
T1 sequence (whole entry): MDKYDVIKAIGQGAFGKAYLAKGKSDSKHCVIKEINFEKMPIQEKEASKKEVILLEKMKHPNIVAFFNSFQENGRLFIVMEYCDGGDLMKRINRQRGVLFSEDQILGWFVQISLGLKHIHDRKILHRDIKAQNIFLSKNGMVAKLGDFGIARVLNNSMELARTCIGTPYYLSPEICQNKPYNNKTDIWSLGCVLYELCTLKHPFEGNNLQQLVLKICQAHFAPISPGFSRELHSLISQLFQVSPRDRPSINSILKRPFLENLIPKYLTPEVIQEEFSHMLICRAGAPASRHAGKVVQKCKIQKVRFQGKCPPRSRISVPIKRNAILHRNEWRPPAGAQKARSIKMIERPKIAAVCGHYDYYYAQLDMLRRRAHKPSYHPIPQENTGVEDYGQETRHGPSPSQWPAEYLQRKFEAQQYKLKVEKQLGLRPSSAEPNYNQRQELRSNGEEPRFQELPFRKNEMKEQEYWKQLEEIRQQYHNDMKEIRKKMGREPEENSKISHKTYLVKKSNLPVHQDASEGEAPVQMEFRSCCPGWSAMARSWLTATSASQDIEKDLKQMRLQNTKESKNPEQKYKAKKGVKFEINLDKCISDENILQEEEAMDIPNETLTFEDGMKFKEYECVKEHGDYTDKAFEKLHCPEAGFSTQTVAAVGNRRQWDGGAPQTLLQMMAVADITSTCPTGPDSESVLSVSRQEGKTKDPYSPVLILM

[4] = target: T2, Dual specificity mitogen-activated protein kinase kinase 6 (Homo sapiens) (UniProt P52564); assay: Inhibition of MEK6 (unknown origin) assessed as residual activity at 1000 nM by KINOMEscan analysis relative to control
T2 sequence (whole entry): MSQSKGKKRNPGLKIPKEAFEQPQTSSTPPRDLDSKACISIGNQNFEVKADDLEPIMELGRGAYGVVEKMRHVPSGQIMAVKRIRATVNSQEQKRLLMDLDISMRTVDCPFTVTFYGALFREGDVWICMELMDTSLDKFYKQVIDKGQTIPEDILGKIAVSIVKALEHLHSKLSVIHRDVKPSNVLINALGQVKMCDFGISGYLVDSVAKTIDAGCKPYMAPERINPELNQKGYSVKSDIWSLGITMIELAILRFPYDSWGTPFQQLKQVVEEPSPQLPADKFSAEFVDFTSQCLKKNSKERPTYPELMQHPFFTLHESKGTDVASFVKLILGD

[5] = system: Epidermal growth factor receptor (Homo sapiens), P00533 [UNDEFINED MUTATION]; assay: Inhibition of EGFR S752-I759del mutant (unknown origin) assessed as residual activity at 1000 nM by KINOMEscan analysis relative to control
[6] = target: T3, Muscle, skeletal receptor tyrosine-protein kinase (Homo sapiens) (UniProt O15146); assay: Inhibition of MUSK (unknown origin) assessed as residual activity at 1000 nM by KINOMEscan analysis relative to control
T3 sequence (whole entry): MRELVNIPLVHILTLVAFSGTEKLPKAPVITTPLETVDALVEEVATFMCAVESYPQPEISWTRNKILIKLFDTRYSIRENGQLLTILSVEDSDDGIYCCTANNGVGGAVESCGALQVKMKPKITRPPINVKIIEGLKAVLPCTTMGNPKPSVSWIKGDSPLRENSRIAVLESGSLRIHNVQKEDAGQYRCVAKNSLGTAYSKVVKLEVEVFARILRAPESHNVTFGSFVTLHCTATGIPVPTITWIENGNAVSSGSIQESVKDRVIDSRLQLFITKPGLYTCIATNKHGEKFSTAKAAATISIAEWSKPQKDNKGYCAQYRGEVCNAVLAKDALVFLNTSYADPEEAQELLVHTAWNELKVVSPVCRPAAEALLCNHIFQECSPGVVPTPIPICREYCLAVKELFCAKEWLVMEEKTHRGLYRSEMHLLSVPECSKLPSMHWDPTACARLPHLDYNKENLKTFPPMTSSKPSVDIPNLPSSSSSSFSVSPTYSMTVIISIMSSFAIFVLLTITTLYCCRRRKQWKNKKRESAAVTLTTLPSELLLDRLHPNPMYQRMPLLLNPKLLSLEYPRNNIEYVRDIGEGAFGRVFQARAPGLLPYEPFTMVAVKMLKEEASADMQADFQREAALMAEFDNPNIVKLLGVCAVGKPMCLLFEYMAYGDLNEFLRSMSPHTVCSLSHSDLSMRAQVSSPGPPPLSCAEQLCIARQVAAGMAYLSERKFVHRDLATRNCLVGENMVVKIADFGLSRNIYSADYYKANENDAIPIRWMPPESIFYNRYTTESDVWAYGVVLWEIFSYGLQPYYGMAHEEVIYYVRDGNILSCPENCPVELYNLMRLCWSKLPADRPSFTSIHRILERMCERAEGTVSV

[7] = target: Serine/threonine-protein kinase WNK3 (Homo sapiens) (UniProt Q9BYP7); assay: Inhibition of WNK3 (unknown origin) assessed as residual activity at 1000 nM by KINOMEscan analysis relative to control
[8] = target: Ribosomal protein S6 kinase alpha-6 (Homo sapiens) (UniProt Q9UK32); assay: Inhibition of N-terminal RSK4 […] domain 1 (unknown origin) assessed as residual activity at 1000 nM by KINOMEscan analysis relative to control
[9] = target: cAMP-dependent protein kinase catalytic subunit alpha (Homo sapiens) (UniProt P17612); assay: Inhibition of PKAC-alpha (unknown origin) assessed as residual activity at 1000 nM by KINOMEscan analysis relative to control
[10] = target: Mitogen-activated protein kinase kinase kinase 20 (Homo sapiens) (UniProt Q9NYL2); assay: Inhibition of ZAK (unknown origin) assessed as residual activity at 1000 nM by KINOMEscan analysis relative to control

Epidermal growth factor receptor (Homo sapiens), P00533 [UNDEFINED MUTATION], sequence (P00533 whole entry, looked up, stated change not applied): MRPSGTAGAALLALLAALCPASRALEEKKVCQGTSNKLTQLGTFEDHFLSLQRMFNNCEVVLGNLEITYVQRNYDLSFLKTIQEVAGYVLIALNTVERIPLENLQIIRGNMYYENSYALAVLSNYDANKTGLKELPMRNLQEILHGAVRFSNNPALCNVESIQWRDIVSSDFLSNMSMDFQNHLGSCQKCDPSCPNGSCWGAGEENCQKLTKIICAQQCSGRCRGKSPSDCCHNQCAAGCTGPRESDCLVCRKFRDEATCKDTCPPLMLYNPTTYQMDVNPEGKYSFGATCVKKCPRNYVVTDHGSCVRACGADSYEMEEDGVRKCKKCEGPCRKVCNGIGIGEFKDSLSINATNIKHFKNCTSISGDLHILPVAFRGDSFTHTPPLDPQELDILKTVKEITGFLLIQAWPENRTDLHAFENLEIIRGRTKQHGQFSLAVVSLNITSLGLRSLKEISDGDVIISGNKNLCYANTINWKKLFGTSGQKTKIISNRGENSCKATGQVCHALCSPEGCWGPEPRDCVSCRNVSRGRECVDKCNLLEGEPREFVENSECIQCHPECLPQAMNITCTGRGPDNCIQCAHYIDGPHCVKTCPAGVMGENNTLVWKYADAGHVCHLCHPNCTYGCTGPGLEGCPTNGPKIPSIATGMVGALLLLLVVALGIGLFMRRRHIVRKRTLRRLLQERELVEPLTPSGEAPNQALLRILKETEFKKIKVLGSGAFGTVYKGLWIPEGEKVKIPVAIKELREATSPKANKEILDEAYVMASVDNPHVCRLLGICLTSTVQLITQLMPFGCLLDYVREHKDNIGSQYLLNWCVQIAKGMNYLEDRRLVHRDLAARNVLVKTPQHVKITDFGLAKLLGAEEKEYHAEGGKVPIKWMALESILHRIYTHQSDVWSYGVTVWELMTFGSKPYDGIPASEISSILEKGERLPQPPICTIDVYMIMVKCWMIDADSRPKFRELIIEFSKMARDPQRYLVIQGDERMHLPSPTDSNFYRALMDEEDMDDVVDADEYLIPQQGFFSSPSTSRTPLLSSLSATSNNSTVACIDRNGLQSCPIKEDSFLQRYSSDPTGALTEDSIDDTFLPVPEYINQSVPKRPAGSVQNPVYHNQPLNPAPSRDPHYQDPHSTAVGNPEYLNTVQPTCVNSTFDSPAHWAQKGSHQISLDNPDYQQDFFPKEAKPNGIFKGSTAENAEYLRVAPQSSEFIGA
Ribosomal protein S6 kinase alpha-6 (Homo sapiens), sequence (Q9UK32 whole entry): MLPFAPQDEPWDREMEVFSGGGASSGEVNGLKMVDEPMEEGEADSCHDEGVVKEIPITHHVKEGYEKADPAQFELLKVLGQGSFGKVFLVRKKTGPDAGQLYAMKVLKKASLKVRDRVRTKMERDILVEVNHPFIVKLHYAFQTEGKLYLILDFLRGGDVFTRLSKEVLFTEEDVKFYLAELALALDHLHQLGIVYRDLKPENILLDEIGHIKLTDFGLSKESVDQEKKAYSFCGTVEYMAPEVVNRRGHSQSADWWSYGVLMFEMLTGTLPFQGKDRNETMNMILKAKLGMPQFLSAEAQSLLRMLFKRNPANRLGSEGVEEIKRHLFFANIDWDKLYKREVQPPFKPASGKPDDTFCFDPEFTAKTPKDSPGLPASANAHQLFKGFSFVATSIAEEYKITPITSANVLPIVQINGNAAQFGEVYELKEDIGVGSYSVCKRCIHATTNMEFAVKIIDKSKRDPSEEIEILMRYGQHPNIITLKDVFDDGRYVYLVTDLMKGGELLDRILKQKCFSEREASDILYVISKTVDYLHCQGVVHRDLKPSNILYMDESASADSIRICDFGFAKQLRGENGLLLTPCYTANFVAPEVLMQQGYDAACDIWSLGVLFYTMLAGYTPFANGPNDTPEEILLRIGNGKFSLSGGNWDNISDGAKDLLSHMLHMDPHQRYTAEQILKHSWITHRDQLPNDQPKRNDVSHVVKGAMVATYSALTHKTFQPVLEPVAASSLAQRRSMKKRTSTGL
Glycogen synthase kinase-3 beta (Homo sapiens), sequence (P49841 whole entry, looked up): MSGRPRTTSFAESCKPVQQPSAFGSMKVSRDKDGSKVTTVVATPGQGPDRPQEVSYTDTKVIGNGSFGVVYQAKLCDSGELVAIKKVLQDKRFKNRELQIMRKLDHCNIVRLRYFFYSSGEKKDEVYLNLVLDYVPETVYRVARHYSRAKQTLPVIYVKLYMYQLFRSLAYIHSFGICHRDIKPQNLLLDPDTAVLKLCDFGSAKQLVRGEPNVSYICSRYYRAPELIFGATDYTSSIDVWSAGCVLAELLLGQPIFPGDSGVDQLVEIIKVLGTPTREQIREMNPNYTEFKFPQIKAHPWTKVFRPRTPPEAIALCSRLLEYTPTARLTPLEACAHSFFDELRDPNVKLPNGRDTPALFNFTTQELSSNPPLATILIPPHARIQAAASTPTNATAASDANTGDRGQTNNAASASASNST
Transient receptor potential cation channel subfamily M member 6 (Homo sapiens), sequence (Q9BX84 whole entry): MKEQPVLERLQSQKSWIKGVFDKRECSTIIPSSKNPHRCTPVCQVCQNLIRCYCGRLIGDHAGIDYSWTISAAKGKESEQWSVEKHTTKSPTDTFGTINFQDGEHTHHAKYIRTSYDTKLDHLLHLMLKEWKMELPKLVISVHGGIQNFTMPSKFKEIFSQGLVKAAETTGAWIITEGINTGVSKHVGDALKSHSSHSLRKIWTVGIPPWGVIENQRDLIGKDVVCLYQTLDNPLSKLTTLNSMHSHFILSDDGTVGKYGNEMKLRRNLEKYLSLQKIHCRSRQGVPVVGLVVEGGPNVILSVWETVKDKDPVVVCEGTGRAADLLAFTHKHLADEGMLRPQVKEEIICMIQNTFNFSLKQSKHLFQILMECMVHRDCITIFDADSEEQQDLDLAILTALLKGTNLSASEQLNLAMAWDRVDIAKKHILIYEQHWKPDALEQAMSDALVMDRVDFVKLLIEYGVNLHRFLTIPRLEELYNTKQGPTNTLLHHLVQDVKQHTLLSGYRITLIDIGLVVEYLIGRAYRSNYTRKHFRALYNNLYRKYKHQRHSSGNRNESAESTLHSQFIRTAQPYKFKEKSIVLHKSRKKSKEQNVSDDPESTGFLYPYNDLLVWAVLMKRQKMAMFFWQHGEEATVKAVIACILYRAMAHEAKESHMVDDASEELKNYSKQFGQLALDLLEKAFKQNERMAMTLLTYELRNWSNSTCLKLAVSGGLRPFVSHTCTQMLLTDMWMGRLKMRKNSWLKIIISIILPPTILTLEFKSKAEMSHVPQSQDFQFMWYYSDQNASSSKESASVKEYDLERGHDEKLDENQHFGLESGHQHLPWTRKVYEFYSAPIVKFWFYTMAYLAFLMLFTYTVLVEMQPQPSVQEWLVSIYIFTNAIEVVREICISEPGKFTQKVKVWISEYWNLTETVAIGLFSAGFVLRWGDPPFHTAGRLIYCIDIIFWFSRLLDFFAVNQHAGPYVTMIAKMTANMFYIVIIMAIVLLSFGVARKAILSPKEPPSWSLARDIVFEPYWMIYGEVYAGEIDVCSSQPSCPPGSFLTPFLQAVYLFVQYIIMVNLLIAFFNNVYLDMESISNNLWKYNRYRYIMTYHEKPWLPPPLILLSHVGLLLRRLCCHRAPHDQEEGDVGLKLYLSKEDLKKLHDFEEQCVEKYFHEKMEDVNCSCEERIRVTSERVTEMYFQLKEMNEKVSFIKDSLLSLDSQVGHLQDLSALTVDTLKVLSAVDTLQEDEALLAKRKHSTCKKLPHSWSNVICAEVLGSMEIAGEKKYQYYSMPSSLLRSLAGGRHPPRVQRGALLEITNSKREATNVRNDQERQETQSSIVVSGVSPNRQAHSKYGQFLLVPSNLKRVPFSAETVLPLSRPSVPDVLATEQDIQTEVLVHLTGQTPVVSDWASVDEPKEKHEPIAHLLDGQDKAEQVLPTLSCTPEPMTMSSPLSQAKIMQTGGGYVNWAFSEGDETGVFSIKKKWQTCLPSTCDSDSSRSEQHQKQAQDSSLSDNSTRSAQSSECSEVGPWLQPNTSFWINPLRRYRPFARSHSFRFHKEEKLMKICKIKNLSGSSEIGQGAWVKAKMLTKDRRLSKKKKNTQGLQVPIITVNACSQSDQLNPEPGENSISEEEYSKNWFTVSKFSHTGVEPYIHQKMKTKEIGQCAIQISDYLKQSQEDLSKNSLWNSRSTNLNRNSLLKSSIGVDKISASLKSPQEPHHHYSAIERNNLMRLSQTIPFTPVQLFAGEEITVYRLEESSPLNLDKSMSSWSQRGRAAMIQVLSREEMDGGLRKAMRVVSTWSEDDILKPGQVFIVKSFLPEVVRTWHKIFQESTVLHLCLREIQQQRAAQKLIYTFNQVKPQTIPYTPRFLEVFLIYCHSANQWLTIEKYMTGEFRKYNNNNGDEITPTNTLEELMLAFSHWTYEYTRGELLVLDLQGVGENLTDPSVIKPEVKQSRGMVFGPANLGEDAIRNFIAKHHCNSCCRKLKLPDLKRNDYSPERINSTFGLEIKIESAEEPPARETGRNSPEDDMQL

Structure (SMILES)	Activity [1] [%]	Activity [2] [%]	Activity [3] [%]	Activity [4] [%]	Activity [5] [%]	Activity [6] [%]	Activity [7] [%]	Activity [8] [%]	Activity [9] [%]	Activity [10] [%]
COc1cc2nc(C)nc(N[C@H](C)c3cccc(-c4cn[nH]c4)c3)c2cc1OC	84	61	90	91	82	91	93	78	97	89
COc1cc2ncnc(N[C@H](C)c3cccc4ccccc34)c2cc1OC	100	100	85	100	13	97	99	100	95	89
